Results from patent US20260022142A1, “MACROCYCLIC IMMUNOMODULATORS” (Bristol-Myers Squibb Company, priority 2022, published 2026).
Numbered stars: 1 amine (or outer) side, 2 acyl side, 3 side chain; on linkers, the order of the positions; unused ones are H or OH. Bridge positions count the residues as written; N and C are the ends. Square brackets hold non-standard residues; d marks the D form. Peptide text beside a SMILES is read from it. * marks the point of attachment. ξ: configuration not given here. Phe(3-CF3) = N[C@@H](Cc1cccc(C(F)(F)F)c1)C(=O)O; Phe(4-COOH) = N[C@@H](Cc1ccc(C(=O)O)cc1)C(=O)O; Bip = N[C@@H](Cc1ccc(-c2ccccc2)cc1)C(=O)O; Phe(3-Me) = Cc1cccc(C[C@H](N)C(=O)O)c1; γGlu = O=C(O)[C@H](CCC(=O)[*:2])N[*:1]; NH(CH2)12COOH = O=C(O)CCCCCCCCCCCCN*; Val(3-OH) = CC(C)(O)[C@H](N)C(=O)O; 4Pal = N[C@@H](Cc1ccncc1)C(=O)O; Cha = N[C@@H](CC1CCCCC1)C(=O)O; Cit = NC(=O)NCCC[C@H](N)C(=O)O; Thr(3ξ) = CC(O)[C@H](N)C(=O)O; PEG4 = NCCOCCOCCOCCOCCC(=O)O; 12Ado = NCCCCCCCCCCCC(=O)O; Carboxymethyl = O=C(O)C*; Nle = CCCC[C@H](N)C(=O)O; Orn = NCCC[C@H](N)C(=O)O; Aun = NCCCCCCCCCCC(=O)O; Dab = NCC[C@H](N)C(=O)O; Abu = CC[C@H](N)C(=O)O; Dap = NC[C@H](N)C(=O)O; AEEA = NCCOCCOCC(=O)O

These compounds were tested against T1, PD-1/PD-L1 interaction (PE-labeled human PD-L1-Ig binding to Jurkat cell line over-expressing human PD-1) (Homo sapiens, UniProt Q15116) (assay: Jurkat-PD-1 Cell Binding High-Content Screening Assay (CBA)). Conditions: Jurkat cell line over-expressing human PD-1; PE-labeled PD-L1-Ig 20 nM final; read-out: Jurkat hPD1-PDL1 IC50.
T1 construct: expressed in transfected cells; host or cells: Jurkat
Type: cell-based
Method: Example 2: Jurkat-PD-1 Cell Binding High-Content Screening Assay (CBA)
Phycoerythrin (PE) was covalently linked to the Ig epitope tag of human PD-L1-Ig and fluorescently-labeled PD-L1-Ig was used for binding studies with a Jurkat cell line over-expressing human PD-1 (Jurkat-PD-1). Briefly, 8×10^3 Jurkat-hPD-1 cells were seeded into 384 well plates in 20 μl of DMEM supplemented with 10% fetal calf serum. 100 nl of compound was added to cells followed by incubation at 37° C. for 2 h. Then, 5 μl of PE-labeled PD-L1-Ig (20 nM final), diluted in DMEM supplemented with 10% fetal calf serum. After 1 hour incubation, cells were fixed with 4% paraformaldehyde in dPBS containing 10 μg/ml Hoechst 33342 and then washed 3× in 100 μl dPBS. Data was collected and processed using a Cell Insight NXT High Content Imager and associated software.

T1 sequence (Q15116 25-288): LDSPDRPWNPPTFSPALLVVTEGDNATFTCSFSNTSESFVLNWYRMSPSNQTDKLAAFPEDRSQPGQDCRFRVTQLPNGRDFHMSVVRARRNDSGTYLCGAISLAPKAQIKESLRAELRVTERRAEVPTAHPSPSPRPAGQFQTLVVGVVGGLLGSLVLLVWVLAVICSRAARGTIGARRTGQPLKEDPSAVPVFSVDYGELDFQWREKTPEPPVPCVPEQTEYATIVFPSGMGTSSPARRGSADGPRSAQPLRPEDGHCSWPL

| Compound | IC50 [nM] |
| --- | --- |
| CC(C)C[C@H]1NC(=O)[C@H](CCCN)NC(=O)[C@H](C(C)C)NC(=O)[C@H](Cc2ccc(-c3ccccc3)cc2)NC(=O)[C@H](C(C)C)NC(=O)[C@H](Cc2c[nH]c3ccccc23)NC(=O)[C@H](CC(=O)O)NC(=O)[C@H](Cc2ccc(OCC(=O)O)cc2)NC(=O)[C@H](CN)NC(=O)CSC[C@@H](C(=O)NCCOCCOCC(=O)N[C@@H](CCCN)C(=O)NCCCCCCCCCCC(=O)O)NC(=O)[C@H](C(C)O)NC(=O)[C@H](C(C)C)NC(=O)[C@H](CC2CCCCC2)NC(=O)[C@H](CC(N)=O)NC1=O (stereo partly drawn) [Compound 3193] ({CH2CO}-[Dap]Y(Carboxymethyl)DWV[Bip]V[Orn][dL]N[Cha]V[Thr(3ξ)]C[AEEA][Orn][Aun]-OH; thioether N-14) | 14.4 |
| Cc1cccc(C[C@@H]2NC(=O)[C@H](CC(=O)O)NC(=O)[C@H](Cc3ccc(OCC(=O)O)cc3)NC(=O)[C@H](Cc3ccncc3)NC(=O)CSC[C@@H](C(=O)N[C@@H](CCCN)C(=O)NCCCCCCCCCCC(=O)O)NC(=O)[C@H](CCCN)NC(=O)[C@H](C(C)C)NC(=O)[C@H](CC3CCCCC3)NC(=O)[C@H](CCN)NC(=O)[C@@H](CC(C)C)NC(=O)[C@H](CCCN)NC(=O)[C@H](C(C)C)NC(=O)[C@H](Cc3ccc(-c4ccccc4)cc3)NC(=O)[C@H](C(C)C)NC2=O)c1 [Compound 3348] ({CH2CO}-[4Pal]Y(Carboxymethyl)D[Phe(3-Me)]V[Bip]V[Orn][dL][Dab][Cha]V[Orn]C[Orn][Aun]-OH; thioether N-14) | 12.8 |
| Cc1cccc(C[C@@H]2NC(=O)[C@H](CC(=O)O)NC(=O)[C@H](Cc3ccc(OCC(=O)O)cc3)NC(=O)[C@H](CCCNC(=N)N)NC(=O)CSC[C@@H](C(=O)N[C@@H](CCN)C(=O)NCCCCCCCCCCC(=O)O)NC(=O)[C@H](CO)NC(=O)[C@H](C(C)C)NC(=O)[C@H](CC3CCCCC3)NC(=O)[C@H](CCN)NC(=O)[C@@H](CC(C)C)NC(=O)[C@H](CCCN)NC(=O)[C@H](Cc3ccc(OCC(=O)O)cc3)NC(=O)[C@H](Cc3ccc(-c4ccccc4)cc3)NC(=O)[C@H](C(C)(C)O)NC2=O)c1 [Compound 2110] ({CH2CO}-RY(Carboxymethyl)D[Phe(3-Me)][Val(3-OH)][Bip]Y(Carboxymethyl)[Orn][dL][Dab][Cha]VSC[Dab][Aun]-OH; thioether N-14) | 24.1 |
| CCCC[C@@H]1NC(=O)[C@H](C(C)C)NC(=O)[C@H](CC2CCCCC2)NC(=O)[C@H](CCN)NC(=O)[C@@H](CC(C)C)NC(=O)[C@H](CCCN)NC(=O)[C@H](Cc2ccc(O)cc2)NC(=O)[C@H](Cc2ccc(-c3ccccc3)cc2)NC(=O)[C@H](C(C)C)NC(=O)[C@H](Cc2cccc(C)c2)NC(=O)[C@H](CC(=O)O)NC(=O)[C@H](Cc2ccc(OCC(=O)O)cc2)NC(=O)[C@H](CN)NC(=O)CSC[C@@H](C(=O)N[C@@H](CCN)C(=O)NCCCCCCCCCCC(=O)O)NC1=O [Compound 2720] ({CH2CO}-[Dap]Y(Carboxymethyl)D[Phe(3-Me)]V[Bip]Y[Orn][dL][Dab][Cha]V[Nle]C[Dab][Aun]-OH; thioether N-14) | 135 |
| CC(=O)NCCCC[C@@H]1NC(=O)[C@H](Cc2ccc(-c3ccccc3)cc2)NC(=O)[C@H](Cc2ccc(O)cc2)NC(=O)[C@H](Cc2cccc(C)c2)NC(=O)[C@H](CC(=O)O)NC(=O)[C@H](Cc2ccc(OCC(=O)O)cc2)NC(=O)[C@H](C(C)O)NC(=O)CSC[C@@H](C(=O)N[C@@H](CCN)C(=O)N[C@@H](CO)C(=O)NCCCCCCCCCCCC(=O)O)NC(=O)[C@H](CCCN)NC(=O)[C@H](C(C)(C)O)NC(=O)[C@H](CC2CCCCC2)NC(=O)[C@H](CCN)NC(=O)[C@@H](CC(C)C)NC(=O)[C@H](CCCN)NC1=O (stereo partly drawn) [Compound 3622] ({CH2CO}-[Thr(3ξ)]Y(Carboxymethyl)D[Phe(3-Me)]Y[Bip]K(Ac)[Orn][dL][Dab][Cha][Val(3-OH)][Orn]C[Dab]S[12Ado]-OH; thioether N-14) | 18.3 |
| CC(C)C[C@H]1NC(=O)[C@H](CCCN)NC(=O)[C@H](C(C)C)NC(=O)[C@H](Cc2ccc(-c3ccccc3)cc2)NC(=O)[C@H](C(C)C)NC(=O)[C@H](Cc2c[nH]c3ccccc23)NC(=O)[C@H](CC(=O)O)NC(=O)[C@H](Cc2ccc(OCC(=O)O)cc2)NC(=O)[C@H](CCCNC(=N)N)NC(=O)CSC[C@@H](C(=O)N[C@@H](CCN)C(=O)NCCCCCCCCCCC(=O)O)NC(=O)[C@H](CCN)NC(=O)[C@H](C(C)C)NC(=O)[C@H](CC2CCCCC2)NC(=O)[C@H](CCN)NC1=O [Compound 3288] ({CH2CO}-RY(Carboxymethyl)DWV[Bip]V[Orn][dL][Dab][Cha]V[Dab]C[Dab][Aun]-OH; thioether N-14) | 13.7 |
| CC(C)C[C@H]1NC(=O)[C@H](CCCN)NC(=O)[C@H](C(C)C)NC(=O)[C@H](Cc2ccc(-c3ccccc3)cc2)NC(=O)[C@H](C(C)C)NC(=O)[C@H](Cc2c[nH]c3ccccc23)NC(=O)[C@H](CC(=O)O)NC(=O)[C@H](Cc2ccc(OCC(=O)O)cc2)NC(=O)[C@H](C(C)O)NC(=O)CSC[C@@H](C(=O)N[C@@H](CCN)C(=O)NCCOCCOCC(=O)N[C@@H](CCC(=O)NCCCCCCCCCCC(=O)O)C(=O)O)NC(=O)[C@H](CN)NC(=O)[C@H](C(C)O)NC(=O)[C@H](CC2CCCCC2)NC(=O)[C@H](CCN)NC1=O (stereo partly drawn) [Compound 3662] ({CH2CO}-[Thr(3ξ)]Y(Carboxymethyl)DWV[Bip]V[Orn][dL][Dab][Cha][Thr(3ξ)][Dap]C[Dab][AEEA][γGlu][Aun]-OH; thioether N-14) | 15.1 |
| CC[C@@H]1NC(=O)CSC[C@@H](C(=O)N[C@@H](CCN)C(=O)NCCOCCOCCOCCOCCC(=O)NCCCCCCCCCCCCC(=O)O)NC(=O)[C@H](Cc2c[nH]cn2)NC(=O)[C@H](C(C)(C)O)NC(=O)[C@H](CC2CCCCC2)NC(=O)[C@H](CCN)NC(=O)[C@@H](CC(C)C)NC(=O)[C@H](CCCN)NC(=O)[C@H](Cc2ccc(C(=O)O)cc2)NC(=O)[C@H](Cc2ccc(-c3ccccc3)cc2)NC(=O)[C@H](Cc2ccc(C(=O)O)cc2)NC(=O)[C@H](Cc2cccc(C(F)(F)F)c2)NC(=O)[C@H](CC(=O)O)NC(=O)[C@H](Cc2ccc(OCC(=O)O)cc2)NC1=O [Compound 2926] ({CH2CO}-[Abu]Y(Carboxymethyl)D[Phe(3-CF3)][Phe(4-COOH)][Bip][Phe(4-COOH)][Orn][dL][Dab][Cha][Val(3-OH)]HC[Dab][PEG4]-{NH(CH2)12COOH}; thioether N-14) | 32.9 |

The next compounds have a lower IC50 than those just listed; values first:

| IC50 [nM] | Compound |
| --- | --- |
| 11.3 | Cc1cccc(C[C@@H]2NC(=O)[C@H](CC(=O)O)NC(=O)[C@H](Cc3ccc(OCC(=O)O)cc3)NC(=O)[C@H](Cc3ccc(OCC(=O)O)cc3)NC(=O)CSC[C@@H](C(=O)NCC(=O)N[C@@H](CCC(=O)O)C(=O)NCCCCCCCCCCC(=O)O)NC(=O)[C@H](CO)NC(=O)[C@H](C(C)C)NC(=O)[C@H](CC(C)C)NC(=O)[C@H](CCN)NC(=O)[C@@H](CC(C)C)NC(=O)[C@H](CCCN)NC(=O)[C@H](C(C)C)NC(=O)[C@H](Cc3ccc(-c4ccccc4)cc3)NC(=O)[C@H](CC(C)C)NC2=O)c1 [Compound 1139] ({CH2CO}-Y(Carboxymethyl)Y(Carboxymethyl)D[Phe(3-Me)]L[Bip]V[Orn][dL][Dab]LVSCGE[Aun]-OH; thioether N-14) |
| 9.8 | Cc1cccc(C[C@@H]2NC(=O)[C@H](CC(=O)O)NC(=O)[C@H](Cc3ccc(OCC(=O)O)cc3)NC(=O)[C@H](C(C)O)NC(=O)CSC[C@@H](C(=O)N[C@H](CC(N)=O)C(=O)NCCCCCCCCCCC(=O)O)NC(=O)[C@H](CCC(N)=O)NC(=O)[C@H](C(C)C)NC(=O)[C@H](CC3CCCCC3)NC(=O)[C@H](CCN)NC(=O)[C@@H](CC(C)C)NC(=O)[C@H](CCCN)NC(=O)[C@H](Cc3ccc(O)cc3)NC(=O)[C@H](Cc3ccc(-c4ccccc4)cc3)NC(=O)[C@H](C(C)C)NC2=O)c1 (stereo partly drawn) [Compound 3428] ({CH2CO}-[Thr(3ξ)]Y(Carboxymethyl)D[Phe(3-Me)]V[Bip]Y[Orn][dL][Dab][Cha]VQC[dN][Aun]-OH; thioether N-14) |
| 7.1 | Cc1cccc(C[C@@H]2NC(=O)[C@H](CC(=O)O)NC(=O)[C@H](Cc3ccc(OCC(=O)O)cc3)NC(=O)[C@H](CCCNC(=N)N)NC(=O)CSC[C@@H](C(=O)N[C@@H](CCCN)C(=O)NCCCCCCCCCCC(=O)O)NC(=O)[C@H](CCC(N)=O)NC(=O)[C@H](C(C)C)NC(=O)[C@H](CC3CCCCC3)NC(=O)[C@H](CCN)NC(=O)[C@@H](CC(C)C)NC(=O)[C@H](CCN)NC(=O)[C@H](CCCNC(N)=O)NC(=O)[C@H](Cc3ccc(-c4ccccc4)cc3)NC(=O)[C@H](C(C)C)NC2=O)c1 [Compound 2798] ({CH2CO}-RY(Carboxymethyl)D[Phe(3-Me)]V[Bip][Cit][Dab][dL][Dab][Cha]VQC[Orn][Aun]-OH; thioether N-14) |
| 5.1 | Cc1cccc(C[C@@H]2NC(=O)[C@H](CC(=O)O)NC(=O)[C@H](Cc3ccc(O)cc3)NC(=O)[C@H](CC(N)=O)NC(=O)CSC[C@@H](C(=O)N[C@@H](CCN)C(=O)NCCOCCOCC(=O)NCCCCCCCCCCC(=O)O)NC(=O)[C@H](CCCN)NC(=O)[C@H](C(C)C)NC(=O)[C@H](CC3CCCCC3)NC(=O)[C@H](CCN)NC(=O)[C@@H](CC(C)C)NC(=O)[C@H](CCCN)NC(=O)[C@H](Cc3ccc(O)cc3)NC(=O)[C@H](Cc3ccc(-c4ccccc4)cc3)NC(=O)[C@H](C(C)C)NC2=O)c1 [Compound 2695] ({CH2CO}-NYD[Phe(3-Me)]V[Bip]Y[Orn][dL][Dab][Cha]V[Orn]C[Dab][AEEA][Aun]-OH; thioether N-14) |
